PubChem BioAssay AID1745844 (Carcinogenic Potency Database (CPDB), 2022)
Several values for one entry are separate records, joined by “and”; a condition that tells them apart may be missing. Equal entries are not always repeated. Activity calls are given as the source filed them. How the calls were made is not given here.

Test system: rodent lifetime carcinogenesis bioassay, tumor incidence TD50
Test: chronic cancer bioassays in animals – CPDB, compiled studies (AID 1745844)
Conditions: inhaled, dosed 104 weeks, study length 104 weeks; for carcinogen call: site: liver, lesion: one or several types, types not named

C=CC(=C)Cl
TD50 (mouse, strain B6C3F1, males, site: lung, lesion: alveolar/bronchiolar adenoma + alveolar/bronchiolar carcinoma): 17.2 mg/kg/day | TD50 (mouse, strain B6C3F1, males, site: lung, lesion: alveolar/bronchiolar adenoma): 30.7 mg/kg/day | TD50 (mouse, strain B6C3F1, males, site: lung, lesion: alveolar/bronchiolar carcinoma): 26.4 mg/kg/day | TD50 (mouse, strain B6C3F1, males, site: mesentery, lesion: hemangioma + hemangiosarcoma): 37.6 mg/kg/day | TD50 (mouse, strain B6C3F1, males, site: mesentery, lesion: hemangiosarcoma): 39 mg/kg/day | TD50 (mouse, strain B6C3F1, males, site: subcutaneous tissue, lesion: hemangiosarcoma): 177 mg/kg/day | TD50 (rat, strain Fischer 344, females, site: all sites, lesion: mononuclear-cell leukemia): 30.4 mg/kg/day | TD50 (rat, strain Fischer 344, females, site: any site (literature study), lesion: several types, types named in the paper): 25.4 mg/kg/day | TD50 (rat, strain Fischer 344, females, site: clitoral gland, lesion: adenoma + adenoma, bilateral + carcinoma + carcinoma, bilateral): 7.14 mg/kg/day | TD50 (rat, strain Fischer 344, females, site: clitoral gland, lesion: carcinoma + carcinoma, bilateral): 12.4 mg/kg/day | TD50 (rat, strain Fischer 344, females, site: kidney, lesion: tubule adenoma + tubule carcinoma): 183 mg/kg/day | TD50 (rat, strain Fischer 344, females, site: kidney, lesion: tubule adenoma): 461 mg/kg/day and 183 mg/kg/day | TD50 (rat, strain Fischer 344, females, site: lung, lesion: alveolar/bronchiolar adenoma): 279 mg/kg/day | TD50 (rat, strain Fischer 344, females, site: mammary gland, lesion: carcinoma + fibroadenoma): 20.4 mg/kg/day | TD50 (rat, strain Fischer 344, females, site: mammary gland, lesion: fibroadenoma): 16.3 mg/kg/day | TD50 (rat, strain Fischer 344, females, site: oral mucosa + gingiva + mammary gland + pharynx + thyroid gland + tongue, lesion: squamous-cell papilloma + carcinoma + fibroadenoma + squamous-cell carcinoma + follicular-cell adenoma + follicular-cell carcinoma): 23.3 mg/kg/day | TD50 (rat, strain Fischer 344, females, site: oral mucosa + gingiva + pharynx + tongue, lesion: squamous-cell papilloma + squamous-cell carcinoma): 33.9 mg/kg/day | TD50 (rat, strain Fischer 344, females, site: oral mucosa + gingiva + pharynx + tongue, lesion: squamous-cell papilloma): 61.2 mg/kg/day | TD50 (rat, strain Fischer 344, females, site: pharynx + tongue, lesion: squamous-cell carcinoma): 77.8 mg/kg/day | TD50 (rat, strain Fischer 344, females, site: thyroid gland, lesion: follicular-cell adenoma + follicular-cell carcinoma): 113 mg/kg/day | TD50 (rat, strain Fischer 344, females, site: tongue, lesion: squamous-cell carcinoma + squamous-cell papilloma): 32.9 mg/kg/day | TD50 (rat, strain Fischer 344, females, site: tongue, lesion: squamous-cell carcinoma): 91.1 mg/kg/day | TD50 (rat, strain Fischer 344, females, site: tongue, lesion: squamous-cell papilloma): 53.5 mg/kg/day | TD50 (rat, strain Fischer 344, females, site: urinary bladder, lesion: transitional-cell carcinoma): 467 mg/kg/day | TD50 (rat, strain Fischer 344, males, site: all sites, lesion: mesothelioma, malignant): 27.1 mg/kg/day | TD50 (rat, strain Fischer 344, males, site: any site (literature study), lesion: several types, types named in the paper): 6.12 mg/kg/day | TD50 (rat, strain Fischer 344, males, site: kidney, lesion: tubule adenoma + tubule carcinoma): 16.1 mg/kg/day | TD50 (rat, strain Fischer 344, males, site: kidney, lesion: tubule adenoma): 38.9 mg/kg/day and 15.4 mg/kg/day | TD50 (rat, strain Fischer 344, males, site: lung, lesion: alveolar/bronchiolar adenoma + alveolar/bronchiolar carcinoma): 23.8 mg/kg/day | TD50 (rat, strain Fischer 344, males, site: lung, lesion: alveolar/bronchiolar carcinoma): 24.5 mg/kg/day | TD50 (rat, strain Fischer 344, males, site: oral mucosa + gingiva + lung + pharynx + thyroid gland + tongue, lesion: squamous-cell papilloma + alveolar/bronchiolar adenoma + alveolar/bronchiolar carcinoma + follicular-cell adenoma + follicular-c): 5.79 mg/kg/day | TD50 (rat, strain Fischer 344, males, site: oral mucosa + gingiva + pharynx + tongue, lesion: squamous-cell papilloma + squamous-cell carcinoma): 10.1 mg/kg/day | TD50 (rat, strain Fischer 344, males, site: oral mucosa + gingiva + pharynx + tongue, lesion: squamous-cell papilloma): 11.1 mg/kg/day | TD50 (rat, strain Fischer 344, males, site: oral mucosa + gingiva + pharynx, lesion: squamous-cell papilloma): 39.2 mg/kg/day | TD50 (rat, strain Fischer 344, males, site: thyroid gland, lesion: c-cell adenoma): 20 mg/kg/day | TD50 (rat, strain Fischer 344, males, site: thyroid gland, lesion: follicular-cell adenoma + follicular-cell carcinoma): 18.7 mg/kg/day | TD50 (rat, strain Fischer 344, males, site: thyroid gland, lesion: follicular-cell adenoma): 22 mg/kg/day | TD50 (rat, strain Fischer 344, males, site: tongue, lesion: squamous-cell carcinoma + squamous-cell papilloma): 13.6 mg/kg/day | TD50 (rat, strain Fischer 344, males, site: tongue, lesion: squamous-cell papilloma): 15.6 mg/kg/day | TD50 (rat, strain Fischer 344, males, site: urinary bladder, lesion: transitional-cell carcinoma): 99.9 mg/kg/day | TD50 (rat, strain Fischer 344, males, site: urinary bladder, lesion: transitional-cell papilloma): 468 mg/kg/day | TD50 (rat, strain Wistar-random, females, site: any site (literature study), lesion: several types, types named in the paper): 37.4 mg/kg/day (inactive) | carcinogen call (rat, strain Wistar-random, females): negative (inactive) | TD50 (rat, strain Wistar-random, females, site: mammary gland, lesion: fibroadenoma): 55.1 mg/kg/day (inactive) | TD50 (rat, strain Wistar-random, males, site: any site (literature study), lesion: several types, types named in the paper): 66.4 mg/kg/day (inactive) | carcinogen call (rat, strain Wistar-random, males): negative (inactive)
